ChEMBL document CHEMBL3885881, “DrugMatrix”

Species on record: Rattus norvegicus
Assay: DrugMatrix - Regimen: Daily Repeat
Format: toxicity, organism-based, Sprague-Dawley
Set-up: regimen Daily Repeat, gender Male, age 6-8 weeks
Conditions: in vivo, po, route oral GAVAGE, vehicle .5 % CMC; for ABSOLUTE BASOPHIL / ABSOLUTE EOSINOPHIL / ABSOLUTE LYMPHOCYTE / ABSOLUTE MONOCYTE / ABSOLUTE SEGMENTED NEUTROPHIL / BASOPHIL / EOSINOPHIL / ERYTHROCYTE COUNT / HEMATOCRIT / HEMOGLOBIN / LEUKOCYTE COUNT / LYMPHOCYTE / MEAN CORPUSCULAR HEMOGLOBIN CONCENTRATION / MEAN CORPUSCULAR VOLUME / MONOCYTE / NEUTROPHIL / NUCLEATED RED BLOOD CELLS / PLATELET COUNT: tissue Blood; for ALANINE AMINOTRANSFERASE / ALBUMIN / ALKALINE PHOSPHATASE / BLOOD UREA NITROGEN / CARBON DIOXIDE / CHLORIDE / CHOLESTEROL / CREATINE PHOSPHOKINASE / CREATININE / GLUCOSE / LACTATE DEHYDROGENASE / LIPASE / PHOSPHORUS / POTASSIUM / SODIUM / TOTAL BILIRUBIN / TOTAL PROTEIN: tissue Plasma
[1] = 0 mg/kg, 72 h, dose level Control, time 3 day
[2] = 0 mg/kg, 120 h, dose level Control, time 5 day
[3] = 60 mg/kg, 72 h, dose level High, time 3 day

CO[C@H]1C[C@@H]2CC[C@@H](C)[C@@](O)(O2)C(=O)C(=O)N2CCCC[C@H]2C(=O)O[C@H]([C@H](C)C[C@@H]2CC[C@@H](O)[C@H](OC)C2)CC(=O)[C@H](C)/C=C(\C)[C@@H](O)[C@@H](OC)C(=O)[C@H](C)C[C@H](C)/C=C/C=C/C=C/1C [SIROLIMUS]
ABSOLUTE BASOPHIL [1]: 0 CELLS/uL | ABSOLUTE EOSINOPHIL [1]: 47.67 CELLS/uL | ABSOLUTE LYMPHOCYTE [1]: 15937.67 CELLS/uL | ABSOLUTE MONOCYTE [1]: 138.33 CELLS/uL | ABSOLUTE SEGMENTED NEUTROPHIL [1]: 1443 CELLS/uL | BASOPHIL [1]: 0% | EOSINOPHIL [1]: 0.33% | ERYTHROCYTE COUNT [1]: 5.45 x10E6/uL | HEMATOCRIT [1]: 34.43% | HEMOGLOBIN [1]: 13.38 G/DL | LEUKOCYTE COUNT [1]: 17.57 x10E3/uL | LYMPHOCYTE [1]: 90.33% | MEAN CORPUSCULAR HEMOGLOBIN CONCENTRATION [1]: 38.88 G/DL | MEAN CORPUSCULAR VOLUME [1]: 63.27 fL | MONOCYTE [1]: 0.83% | NEUTROPHIL [1]: 8.5% | NUCLEATED RED BLOOD CELLS [1]: 0 /100WBC | PLATELET COUNT [1]: 1298 x10E3/uL | ALANINE AMINOTRANSFERASE [1]: 47.67 u/L | ALBUMIN [1]: 4.18 G/DL | ALKALINE PHOSPHATASE [1]: 398.5 u/L | BLOOD UREA NITROGEN [1]: 16 mg/dL | CARBON DIOXIDE [1]: 29.17 mmol/L | CHLORIDE [1]: 98.17 MEQ/L | CHOLESTEROL [1]: 68.83 mg/dL | CREATINE PHOSPHOKINASE [1]: 467.33 u/L | CREATININE [1]: 0.14 mg/dL | GLUCOSE [1]: 151.67 mg/dL | LACTATE DEHYDROGENASE [1]: 597.5 u/L | LIPASE [1]: 9.33 u/L | PHOSPHORUS [1]: 11.97 mg/dL | POTASSIUM [1]: 6.43 MEQ/L | SODIUM [1]: 140.68 MEQ/L | TOTAL BILIRUBIN [1]: 0.18 mg/dL | TOTAL PROTEIN [1]: 5.82 G/DL | ABSOLUTE BASOPHIL [2]: 0 CELLS/uL | ABSOLUTE EOSINOPHIL [2]: 31 CELLS/uL | ABSOLUTE LYMPHOCYTE [2]: 14327.83 CELLS/uL | ABSOLUTE MONOCYTE [2]: 102.83 CELLS/uL | ABSOLUTE SEGMENTED NEUTROPHIL [2]: 1321.67 CELLS/uL | BASOPHIL [2]: 0% | EOSINOPHIL [2]: 0.17% | ERYTHROCYTE COUNT [2]: 5.79 x10E6/uL | HEMATOCRIT [2]: 36.1% | LEUKOCYTE COUNT [2]: 15.78 x10E3/uL | LYMPHOCYTE [2]: 90.5% | MEAN CORPUSCULAR HEMOGLOBIN CONCENTRATION [2]: 39.22 G/DL | MEAN CORPUSCULAR VOLUME [2]: 62.4 fL | MONOCYTE [2]: 0.67% | NEUTROPHIL [2]: 8.67% | NUCLEATED RED BLOOD CELLS [2]: 0.17 /100WBC | PLATELET COUNT [2]: 1211.67 x10E3/uL | ALANINE AMINOTRANSFERASE [2]: 49 u/L | ALBUMIN [2]: 4.27 G/DL | ALKALINE PHOSPHATASE [2]: 356.67 u/L | BLOOD UREA NITROGEN [2]: 20.5 mg/dL | CARBON DIOXIDE [2]: 29.17 mmol/L | CHLORIDE [2]: 98 MEQ/L | CHOLESTEROL [2]: 69.83 mg/dL | CREATINE PHOSPHOKINASE [2]: 312 u/L | CREATININE [2]: 0.21 mg/dL | GLUCOSE [2]: 149.83 mg/dL | LACTATE DEHYDROGENASE [2]: 322 u/L | LIPASE [2]: 10 u/L | PHOSPHORUS [2]: 12 mg/dL | POTASSIUM [2]: 6.75 MEQ/L | SODIUM [2]: 142.8 MEQ/L | TOTAL BILIRUBIN [2]: 0.17 mg/dL | TOTAL PROTEIN [2]: 6.1 G/DL | ABSOLUTE BASOPHIL [3]: 0 CELLS/uL | ABSOLUTE EOSINOPHIL [3]: 0 CELLS/uL | ABSOLUTE LYMPHOCYTE [3]: 11212.33 CELLS/uL | ABSOLUTE SEGMENTED NEUTROPHIL [3]: 775.67 CELLS/uL | BASOPHIL [3]: 0% | EOSINOPHIL [3]: 0% | ERYTHROCYTE COUNT [3]: 6.32 x10E6/uL | HEMATOCRIT [3]: 39.93% | HEMOGLOBIN [3]: 15.57 G/DL | LEUKOCYTE COUNT [3]: 12.23 x10E3/uL | LYMPHOCYTE [3]: 91.67% | MEAN CORPUSCULAR HEMOGLOBIN CONCENTRATION [3]: 39 G/DL | MEAN CORPUSCULAR VOLUME [3]: 63.4 fL | MONOCYTE [3]: 2% | NEUTROPHIL [3]: 6.33% | NUCLEATED RED BLOOD CELLS [3]: 0 /100WBC | PLATELET COUNT [3]: 1112 x10E3/uL | ALANINE AMINOTRANSFERASE [3]: 51.33 u/L | ALBUMIN [3]: 4.23 G/DL | ALKALINE PHOSPHATASE [3]: 271 u/L | BLOOD UREA NITROGEN [3]: 18.33 mg/dL | CARBON DIOXIDE [3]: 29.67 mmol/L | CHLORIDE [3]: 97.67 MEQ/L | CHOLESTEROL [3]: 84.33 mg/dL | CREATINE PHOSPHOKINASE [3]: 323.67 u/L | CREATININE [3]: 0.19 mg/dL | GLUCOSE [3]: 192 mg/dL | LACTATE DEHYDROGENASE [3]: 111.33 u/L | LIPASE [3]: 10.33 u/L | PHOSPHORUS [3]: 11.37 mg/dL | POTASSIUM [3]: 5.46 MEQ/L | SODIUM [3]: 143.47 MEQ/L | TOTAL BILIRUBIN [3]: 0.17 mg/dL | TOTAL PROTEIN [3]: 5.9 G/DL | ABSOLUTE BASOPHIL (60 mg/kg, 120 h, dose level High, time 5 day): 0 CELLS/uL
